The subject of this test is YAP-TEAD. Kind of test: TEAD inhibition, Hippo Pathway TEAD Reporter MCF-7 luciferase assay. In kind it is cell-based. The following applies: Homo sapiens, MCF7, 24 h, Hippo Pathway TEAD Reporter MCF-7 cells, luciferase activity after 24 h; read-out: IC50 of the test compounds on YAP-TEAD inhibition (Group). Summed up:
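IC50 derived from ONE-Glo luciferase luminescence after 24 h compound exposure (11 concentrations in quadruplicate, 0.1% DMSO control). Reporter: MCF-7 line expressing firefly luciferase under TEAD elements, constitutively activated by nuclear YAP1.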

Usually IC50 stands for the concentration needed to halve the response being measured.

Structures are written as SMILES.

Turning to `COc1ccc(Oc2ncc(C(F)(F)F)cc2F)cc1NC(=O)[C@@H]1CN(C)C(=O)N1C(C)=O` [Compound 343, (S)-3-Acetyl-N-(5-((3-fluoro-5-(trifluoromethyl)pyridin-2-yl)oxy)-2-methoxy-phenyl)-1-methyl-2-oxoimidazolidine-4-carboxamide], the IC50 is 0.301 to 2 µM.

As for `CN1C(=O)NC[C@H]1C(=O)Nc1cc(Oc2ccc(C(F)(F)F)cn2)cc2c1ncn2C` [Compound 218, (S)-3-Methyl-N-(1-methyl-6-((5-(trifluoromethyl)pyridin-2-yl)oxy)-1H-benzo-[d]imidazol-4-yl)-2-oxoimidazolidine-4-carboxamide], the IC50 was 0.05 to 0.3 µM.

For `COc1ccc(OCC2CCCCC2)cc1NC(=O)C1CCC(=O)N1C` (centres unmarked) [Compound 294, N-(5-(Cyclohexylmethoxy)-2-methoxyphenyl)-1-methyl-5-oxopyrrolidine-2-carboxamide], the IC50 is below 0.05 µM.

Turning to `CN1C(=O)CCC1C(=O)Nc1cc(Oc2cccc(C(F)(F)F)c2)cc2c1OCCO2` (centres unmarked) [Compound 233, 1-Methyl-5-oxo-N-(7-(3-(trifluoromethyl)phenoxy)-2,3-dihydrobenzo[b][1,4]dioxin-5-yl)pyrrolidine-2-carboxamide], the concentration for half-maximal inhibition (IC50) was in the range of 0.05 to 0.3 µM.

On to `COc1ccc(Oc2ccc(F)cn2)cc1NC(=O)C1CCC(=O)N1C` (centres unmarked) [Compound 202, N-(5-((5-Fluoropyridin-2-yl)oxy)-2-methoxyphenyl)-1-methyl-5-oxopyrrolidine-2-carboxamide], for which the IC50 is 0.301 to 2 µM.

`COc1ccc(Oc2ccc(OC(C)C)cc2)cc1NC(=O)C1CCC(=O)N1` (centres unmarked) [Compound 301, N-(5-(4-Isopropoxyphenoxy)-2-methoxyphenyl)-5-oxopyrrolidine-2-carboxamide]: the half-maximal inhibitory concentration (IC50) lay in the range of 0.301 to 2 µM.

Regarding `COc1ccc(Oc2ccc(C(F)(F)F)cn2)cc1NC(=O)C1CNC(=O)N1C` (centres unmarked) [Compound 118, N-(2-Methoxy-5-((5-(trifluoromethyl)pyridin-2-yl)oxy)phenyl)-3-methyl-2-oxoimidazolidine-4-carboxamide], the IC50 was below 0.05 µM.

With `COc1cc(F)c(Oc2ccc(C(F)(F)F)cn2)cc1NC(=O)[C@H]1CNC(=O)N1C` [Compound 155, (R)—N-(4-Fluoro-2-methoxy-5-((5-(trifluoromethyl)pyridin-2-yl)oxy)phenyl)-3-methyl-2-oxoimidazolidine-4-carboxamide], the IC50 fell in the range of 0.05 to 0.3 µM.

For the compound `C[C@H]1Cc2cc(Oc3ccc(C(F)(F)F)cn3)cc(NC(=O)[C@H]3CCC(=O)N3C)c2O1` [Compound 172, (2R)-1-Methyl-N-(2-methyl-5-((5-(trifluoromethyl)pyridin-2-yl)oxy)-2,3-di-hydrobenzofuran-7-yl)-5-oxopyrrolidine-2-carboxamide], the IC50 lay in the range of 0.05 to 0.3 µM.

As to `COc1ccc(Oc2ccc(C(F)(F)F)cc2)cc1NC(=O)[C@@H]1CCC(=O)N1C` [Compound 70, (S)—N-(2-Methoxy-5-(4-(trifluoromethyl)phenoxy)phenyl)-1-methyl-5-oxo-pyrrolidine-2-carboxamide], the concentration for half-maximal inhibition (IC50) was below 0.05 µM.

Regarding `COCC(=O)N1C(=O)CCC1C(=O)Nc1cc(Oc2ncc(C(F)(F)F)cc2F)ccc1OC` (centres unmarked) [Compound 334, N-(5-((3-Fluoro-5-(trifluoromethyl)pyridin-2-yl)oxy)-2-methoxyphenyl)-1-(2-methoxyacetyl)-5-oxopyrrolidine-2-carboxamide], the IC50 fell in the range of 0.05 to 0.3 µM.

As for `COc1cc(NC(=O)[C@H]2CCC(=O)N2C)cc(OC2CCC(C(F)(F)F)CC2)c1` (some centres unmarked) [Compound 282], the 50% inhibitory concentration (IC50) is below 0.05 µM.

As to `COc1ccc(Oc2ccc(C(F)(F)F)cn2)cc1NC(=O)[C@H]1COC(=O)N1C` [Compound 126, (R)—N-(2-Methoxy-5-((5-(trifluoromethyl)pyridin-2-yl)oxy)phenyl)-3-methyl-2-oxooxazolidine-4-carboxamide], the concentration for half-maximal inhibition (IC50) is 0.05 to 0.3 µM.

In the case of `COc1cc(F)c(Oc2ccc(C(F)(F)F)cn2)cc1NC(=O)C1CNC(=O)N1C` (centres unmarked) [Compound 153, N-(4-Fluoro-2-methoxy-5-((5-(trifluoromethyl)pyridin-2-yl)oxy)phenyl)-3-methyl-2-oxoimidazolidine-4-carboxamide], the IC50 is below 0.05 µM.
